From ChEMBL document CHEMBL1201862, “PubChem BioAssay data set” (2004) come the findings set out here.

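All cell lines were grown in 96-well plates and treated with compound for 48 hours. GI50 marks 50% less growth.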 Active and inactive are the calls of the source. No stated cut-off is given here; in the data, active = GI50 up to about 1.1 µM and inactive = higher.

Some test systems named below: CAKI-1; CCRF-CEM; HCT-15; HOP-62; HT-29; IGROV-1; K562; LOX IMVI; Malme-3M; NCI-H23; NCI-H460; OVCAR-3; OVCAR-4; OVCAR-8; PC-3; SF-268; SK-MEL-5; UACC-257; UACC-62; UO-31.
What all share (experiment): DTP human tumour cell line panel, 48 h

As for `CO/N=C1\CC(NC(=O)C(F)(F)F)c2ccsc21` (stereo not given), the GI50 with CAKI-1 was > 100 µM (inactive); in the assay on CCRF-CEM, > 100 µM (inactive); with HCT-15 it was greater than 100 µM; in the assay with HOP-62 it was > 100 µM (inactive); in the assay on HT-29, > 100 µM (inactive); with IGROV-1, > 100 µM (inactive). Further, the GI50 in the assay on K562, in the assay on LOX IMVI, with Malme-3M, in the assay on NCI-H23, in the assay with NCI-H460 and in the assay with OVCAR-3 was > 100 µM (inactive) in each case. Also, the GI50 in the assay on OVCAR-4, with OVCAR-8, in the assay on PC-3, with SF-268, with SK-MEL-5 and in the assay with UACC-257 was > 100 µM (inactive) throughout. Further, the GI50 in the assay on UACC-62 and in the assay on UO-31 was > 100 µM (inactive) in each case.

As usually defined, the GI50 is the concentration that inhibits growth by half.
